Measurements taken from patent US11974983B2 (Duke University, priority 2018, dated 2024).
Where two headings read alike, the source gives them in different places.

What was measured:
[1] = system: wild-type ERα and ERα LBD mutants Y537S, Y537N, Y537C, D538G; experiment: ERE-luciferase reporter assay in Caov2 and SKBR3 cells (statements on all receptors); assay type: cell-based
Protocol: ExSite mutagenesis was performed using the corresponding primers as summarized in Table 1 below on a pENTR2B ERα WT construct using Pfu ultra taq polymerase. The primers were PNK phosphorylated. Following PCR amplification, the products were digested with DpnI at 37° C. for 1 hr, followed by overnight ligation at 16° C. Ligated products were transformed into DH5α bacterial cells and grown on kanamycin resistant plates. The pENTR clones were verified by sequencing and then swapped into the pcDNA-DEST vector using the Gateway system (Invitrogen) for expression analysis.
Caov2 ovarian carcinoma cells were grown in RPMI-1640 media (Gibco) supplemented with 8% Fetal Bovine Serum (FBS), Sodium Pyruvate (NaPyr) and non-essential amino acids (NEAA) and passaged every 2-3 days. SKBR3 breast adenocarcinoma cells were grown in DMEM media (Gibco) supplemented with 8% Fetal Bovine Serum (FBS), Sodium Pyruvate (NaPyr) and non-essential amino acids (NEAA) and passaged every 2-3 days. […]
Caov2 cells were co-transfected with the 7X-TK-ERE-TATA luciferase reporter gene (Nagel et al., Endocrinology 142(11): 4721-4728 (2001)) and expression constructs for either wild-type or mutant receptors using Fugene transfection reagent (Promega). […] Following 24 hours of treatment, cells were lysed and the luciferase and β-gal assays were performed as described previously (Norris et al., J Biol Chem 270(39): 22777-22782 (1995)) and the plates were read on the Fusion α-FP HT plate reader (PerkinElmer Life Sciences).
See Jeselsohn et al., Nature Reviews Clinical Oncology 12(10): 573-583 (2015); Jeselsohn et al., Clinical Cancer Research 20(7): 1757-1767 (2014); Robinson et al., Nature Genetics 45(12): 1446-1451(2013); Thomas and Gustafsson, Trends in Endocrinology and Metabolism 26(9): 467-476 (2015); and Toy et al., Nature Genetics 45(12): 1439-1445 (2013). The activity of these mutants was evaluated in a reconstituted estrogen response element (ERE)-luciferase reporter assay in Caov2 ovarian carcinoma cells and SKBR3 breast adenocarcinoma cells. […]

[2] = in blood, cited from earlier work
[3] = cited from earlier work
ERα Y537S mutant LBD = target: T1, ERα Y537S mutant LBD (Homo sapiens, UniProt P03372, C381S/C417S/C530S/Y537S); experiment: X-ray crystal structure of ligand-bound ERα Y537S mutant LBD
T1 construct: 6x-His-TEV (N, cleaved yes); made in house; host or cells: E. coli BL21(DE3)
T1 sequence (P03372 311-547 C381S/C417S/C530S/Y537S limits assumed): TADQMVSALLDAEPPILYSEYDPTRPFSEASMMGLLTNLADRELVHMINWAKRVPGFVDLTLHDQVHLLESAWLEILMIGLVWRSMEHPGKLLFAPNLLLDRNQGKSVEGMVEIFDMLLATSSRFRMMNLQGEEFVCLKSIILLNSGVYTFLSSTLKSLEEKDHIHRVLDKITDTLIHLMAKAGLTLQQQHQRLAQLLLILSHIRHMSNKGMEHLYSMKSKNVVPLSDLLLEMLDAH
Protocol: 6x-His-TEV-Estrogen receptor alpha ligand binding domain containing C381S, C417S, C530S with L536S or Y537S mutations were expressed in E. coli BL21(DE3). The L536S mutant stabilizes the wild-type antagonist conformation and Y537S is an activating somatic mutation that has been identified in patients with acquired hormone resistance. Both proteins were purified using Ni-NTA resin, the 6x-His tag was cleaved using tev protease, removed using Ni-NTA resin, and a final purification was performed by passing the protein over a size exclusion column. The main peak was concentrated to 10 mg/mL and flash frozen.
Hanging drop vapor diffusion was used to crystallize the complexes. The L536S-Laso (lasofoxifene-bound ERα wild-type LBD) complex formed clear hexagonal crystals in 25% PEG 8,000, 200 mM MgCl2, HEPES pH 7.5 after two weeks at room temperature. The Y537S-Laso (lasofoxifene-bound ERα Y537S mutant LBD) complex formed rectangular crystals in 20% PEG 3.35K, 200 mM MgCl2, HEPES pH 6.5 after one week at room temperature.
Crystals were cryo-protected in 25% glycerol in mother liquor and flash frozen in liquid nitrogen. All x-ray crystallographic data sets were collected at the Advanced Photon Source. The L536S-Laso complex diffracted to 1.8 Å and the Y537S-Laso complex diffracted to 2.1 Å by cc^1/2 over 50%. Phaser was used for molecular replacement with 5UFX as the model. […]

[4] = system: MCF7 cells stably expressing DOX-inducible ER D538G; experiment: Dose response cell counting in MCF7 cells with DOX-inducible HA-tagged ER D538G; assay type: cell-based; conditions: for IC50: Homo sapiens, MCF7, 120 h, allele D538G, cell count day 5, full medium
Protocol: MCF7 estrogen receptor alpha positive (ER^+) breast cancer cells were engineered to stably express doxycycline (DOX)-inducible hemagglutinin (HA)-tagged full length ER with ligand binding domain mutations Y537S and D538G. The introduction and expression of the mutants were confirmed by Sanger sequencing, RNA-sequencing, and western blot.
The dose response studies were performed in full medium conditions. Cells were treated with DOX for the induction of HA-tagged mutated ER or with vehicle as control, and plated in triplicate. Subsequently, on day 5, cell counting was performed using the Celigo instrument with Hoechst dye staining to detect nucleated live cells and propidium iodide to quantify dead cells.
IC50 values were calculated using PRISM.

Oc1ccc2c(c1)CC[C@H](c1ccccc1)[C@@H]2c1ccc(OCCN2CCCC2)cc1 [Lasofoxifene, lasofoxifene]
inhibition of the transcriptional activity of the ERα mutants ([1]; all tested ERα LBD mutants, in presence of 1 nM 17-β estradiol, Caov2 and SKBR3 cells): effectively inhibited the transcriptional activity of all tested ERα LBD mutants in a dose-response manner | response of mutants to inhibitory action compared with WT receptor ([1]; each mutant versus WT receptor): reduced response | Reported Cmax ([2]; dose 0.5 mg): 3.6 ng/mL | Reported Cmax ([2]; dose 1 mg): 6.43 ng/mL | risk of breast cancer ([3]; PEARL trial, post-menopausal women with osteoporosis): reduced the risk of breast cancer | risk of osteoporosis ([3]; double-blind, placebo-controlled, randomized PEARL trial): reduce the risk of osteoporosis | loop between helix 11 and helix 12 in the crystal structure (ERα Y537S mutant LBD): absent | anti-estrogenic activity, cell killing with increasing dose titration ([4]; D538G stable transfectants, 10^−12 M to 10^−6 M): kill the stably transfected cells | IC50 ([4]; DOX-induced mutant ER, read-out: IC50 DOX (ESR mutation)): 1 nM | IC50 ([4]; no DOX, read-out: IC50 No DOX (wt only)): 0.1 nM
